Reference: patent US20250296959A1, “B7-H3 TARGETING PEPTIDES AND CONSTRUCTS THEREOF” (Mariana Oncology Inc., priority 2024, published 2025)
Starred links: 1 amine or outer side, 2 acyl side, 3 side chain; linkers in the order of their positions; H or OH if unused. Positions of bridges follow the written chain, without caps; N, C: chain ends. Non-standard residues stand in square brackets, D forms with d. Residues, ends and D or L forms follow the SMILES beside them. Groups on a side chain read outwards from the residue. *: point of attachment. Ala(1-CH2CO2H-4-piperidyl) = N[C@@H](CC1CCN(CC(=O)O)CC1)C(=O)O; Ala(piperidin-4-yl) = O=C([C@H](CC1CCN([*:3])CC1)N[*:1])[*:2]; DOTA = O=C(O)CN1CCN(CC(=O)O)CCN(CC(=O)*)CCN(CC(=O)O)CC1; Trp(5-F) = N[C@@H](Cc1c[nH]c2ccc(F)cc12)C(=O)O; X1 = C[C@@H](c1ccccc1)[C@H](N[*:1])C(=O)[*:2]; Phe(3R-Me) = C[C@H](c1ccccc1)[C@H](N)C(=O)O; γGlu = O=C(O)[C@H](CCC(=O)[*:2])N[*:1]; 1Nal = N[C@@H](Cc1cccc2ccccc12)C(=O)O; Ala(4-THP) = N[C@@H](CC1CCOCC1)C(=O)O; Val(3-OH) = CC(C)(O)[C@H](N)C(=O)O; PEG4 = NCCOCCOCCOCCOCCC(=O)O; Tle = CC(C)(C)[C@H](N)C(=O)O; hLeu = CC(C)CC[C@H](N)C(=O)O; Nle = CCCC[C@H](N)C(=O)O

What follows are molecules tested against T1, human 4lg B7-H3 (Homo sapiens, UniProt Q5ZPR3) (assay: Affinity determination by surface plasmon resonance (SPR) to 4Ig B7-H3). Conditions: SPR KD—37° C., 4Ig B7-H3; 37° C. flow cell temperature.
T1 sequence (Q5ZPR3 29-534): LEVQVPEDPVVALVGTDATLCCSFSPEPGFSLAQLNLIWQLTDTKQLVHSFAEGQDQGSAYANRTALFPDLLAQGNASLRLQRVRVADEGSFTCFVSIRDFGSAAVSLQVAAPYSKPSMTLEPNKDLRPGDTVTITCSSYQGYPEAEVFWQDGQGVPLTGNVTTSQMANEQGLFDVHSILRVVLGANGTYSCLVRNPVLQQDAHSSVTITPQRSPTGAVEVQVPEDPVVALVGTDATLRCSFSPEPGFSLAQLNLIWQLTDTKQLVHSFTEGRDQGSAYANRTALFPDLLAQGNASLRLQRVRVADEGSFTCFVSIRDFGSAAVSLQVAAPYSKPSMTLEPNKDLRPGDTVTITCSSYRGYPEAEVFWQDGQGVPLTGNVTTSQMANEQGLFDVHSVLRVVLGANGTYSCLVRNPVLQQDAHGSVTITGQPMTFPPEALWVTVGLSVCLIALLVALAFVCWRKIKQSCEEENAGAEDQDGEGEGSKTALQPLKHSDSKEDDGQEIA

First: CCCC[C@H](NC(=O)[C@H](Cc1c[nH]c2ccc(F)cc12)NC(=O)[C@@H]1CSSC[C@H](NC(=O)[C@H](Cc2ccc(O)cc2)NC(=O)[C@H](CCC(C)C)NC(C)=O)C(=O)N[C@@H](C(C)(C)C)C(=O)NCC(=O)N[C@@H](CC2CCN(CC(=O)O)CC2)C(=O)N[C@@H](CC2CCOCC2)C(=O)N[C@@H](CC(=O)O)C(=O)N[C@@H](C(C)C)C(=O)N[C@@H](Cc2ccc(O)cc2)C(=O)N1)C(=O)N1CCC[C@H]1C(=O)N[C@H](CCCCNC(=O)CN1CCN(CC(=O)O)CCN(CC(=O)O)CCN(CC(=O)O)CC1)C(=O)O [compound 321, Ac-hLeu-Y-C-Tbg-G-[Pip(CH2CO2H)Ala]-ThpA-D-V-Y-C-5FW-Nle-Pro-dLys(DOTA)-COOH] (Ac-[hLeu]YC[Tle]G[Ala(1-CH2CO2H-4-piperidyl)][Ala(4-THP)]DVYC[Trp(5-F)][Nle]P[dK](DOTA)-OH; disulfide 3-11)
Second: CC(=O)N[C@@H](CCC(C)C)C(=O)N[C@@H](Cc1ccc(O)cc1)C(=O)N[C@H]1CSSC[C@@H](C(=O)N[C@@H](Cc2c[nH]c3ccc(F)cc23)C(=O)N[C@H](C(=O)N[C@H](C(=O)N[C@H](CCCCNC(=O)CN2CCN(CC(=O)O)CCN(CC(=O)O)CCN(CC(=O)O)CC2)C(=O)O)C(C)(C)O)[C@H](C)c2ccccc2)NC(=O)[C@H](Cc2ccc(O)cc2)NC(=O)[C@H](C(C)C)NC(=O)[C@H](CC(=O)O)NC(=O)[C@H](CC2CCOCC2)NC(=O)[C@H](CC2CCNCC2)NC(=O)CNC(=O)[C@H](C(C)(C)C)NC1=O [compound 434, Ac-hLeu-Y-C-Tbg-G-PipAla-ThpA-D-V-Y-C-5FW-[(2S, 3R)beta-Me-Phe]-hydroxyVal-dLys(DOTA)-COOH] (Ac-[hLeu]YC[Tle]G[Ala(piperidin-4-yl)][Ala(4-THP)]DVYC[Trp(5-F)][Phe(3R-Me)][Val(3-OH)][dK](DOTA)-OH; disulfide 3-11)
The Kd of the first is higher: 10 to 100 nM for the first, less than 1 nM for the second. The second binds more tightly here.

`CC(=O)N[C@@H](CCC(C)C)C(=O)N[C@@H](Cc1ccc(O)cc1)C(=O)N[C@H]1CSSC[C@@H](C(=O)N[C@@H](Cc2cccc3ccccc23)C(=O)N[C@@H](Cc2ccccc2)C(=O)N[C@H](C(=O)N[C@H](CCCCNC(=O)CC[C@H](NC(=O)CN2CCN(CC(=O)O)CCN(CC(=O)O)CCN(CC(=O)O)CC2)C(=O)O)C(=O)O)C(C)(C)O)NC(=O)[C@H](Cc2ccc(O)cc2)NC(=O)[C@H](C(C)C)NC(=O)[C@H](CC(=O)O)NC(=O)[C@H](CC2CCOCC2)NC(=O)[C@H](CC2CCNCC2)NC(=O)CNC(=O)[C@H](C(C)(C)C)NC1=O` [compound 441, Ac-hLeu-Y-C-Tbg-G-PipAla-ThpA-D-V-Y-C-1Nal-F-hydroxyVal-dLys(gGlu-DOTA)-COOH] (Ac-[hLeu]YC[Tle]G[Ala(piperidin-4-yl)][Ala(4-THP)]DVYC[1Nal]F[Val(3-OH)][dK]([γGlu-DOTA])-OH; disulfide 3-11) and `CC(=O)N[C@@H](CCC(C)C)C(=O)N[C@@H](Cc1ccc(O)cc1)C(=O)N[C@H]1CSSC[C@@H](C(=O)N[C@@H](Cc2c[nH]c3ccc(F)cc23)C(=O)N[C@H](C(=O)N[C@H](C(=O)N[C@H](CCCCNC(=O)[C@H](CCC(=O)O)NC(=O)CN2CCN(CC(=O)O)CCN(CC(=O)O)CCN(CC(=O)O)CC2)C(=O)O)C(C)(C)O)[C@@H](C)c2ccccc2)NC(=O)[C@H](Cc2ccc(O)cc2)NC(=O)[C@H](C(C)C)NC(=O)[C@H](CC(=O)O)NC(=O)[C@H](CC2CCOCC2)NC(=O)[C@H](CC2CCNCC2)NC(=O)CNC(=O)[C@H](C(C)(C)C)NC1=O` [compound 498, Ac-hLeu-Y-C-Tbg-G-PipAla-ThpA-D-V-Y-C-5FW-[(2S, 3S)beta-Me-Phe]-hydroxyVal-dLys(Glu-DOTA)-COOH] (Ac-[hLeu]YC[Tle]G[Ala(piperidin-4-yl)][Ala(4-THP)]DVYC[Trp(5-F)][X1][Val(3-OH)][dK]([Glu-DOTA])-OH; disulfide 3-11) cannot be ordered by Kd: less than 1 nM for the first, less than 1 nM for the second.

First: CC(=O)N[C@@H](CCC(C)C)C(=O)N[C@@H](Cc1ccc(O)cc1)C(=O)N[C@H]1CSSC[C@@H](C(=O)N[C@@H](Cc2c[nH]c3ccc(F)cc23)C(=O)N[C@H](C(=O)N[C@H](C(=O)NCC(=O)O)C(C)(C)O)[C@@H](C)c2ccccc2)NC(=O)[C@H](Cc2ccc(O)cc2)NC(=O)[C@H](C(C)C)NC(=O)[C@H](CC(=O)O)NC(=O)[C@H](CC2CCN(C(=O)CCOCCOCCOCCOCCNC(=O)CN3CCN(CC(=O)O)CCN(CC(=O)O)CCN(CC(=O)O)CC3)CC2)NC(=O)[C@H](CC2CCNCC2)NC(=O)CNC(=O)[C@H](C(C)(C)C)NC1=O [compound 510, Ac-hLeu-Y-C-Tbg-G-PipAla-Pip(PEG4-DOTA)Ala-D-V-Y-C-5FW-[(2S, 3S)beta-Me-Phe]-hydroxyVal-Gly-COOH] (Ac-[hLeu]YC[Tle]G[Ala(piperidin-4-yl)][Ala(piperidin-4-yl)]([PEG4-DOTA])DVYC[Trp(5-F)][X1][Val(3-OH)]G-OH; disulfide 3-11)
Second: CC[C@H](C)[C@@H]1NC(=O)[C@@H](NC(=O)[C@H](Cc2ccc(O)cc2)NC(=O)[C@H](CCC(C)C)NC(C)=O)CSSC[C@@H](C(=O)N[C@@H](Cc2c[nH]c3ccc(F)cc23)C(=O)N[C@@H](Cc2ccccc2)C(=O)N[C@H](C(=O)O)C(C)(C)O)NC(=O)[C@H](Cc2ccc(O)cc2)NC(=O)[C@H](C(C)C)NC(=O)[C@H](CC(=O)O)NC(=O)[C@H](CC2CCNCC2)NC(=O)[C@H](CCCCNC(=O)CN2CCN(CC(=O)O)CCN(CC(=O)O)CCN(CC(=O)O)CC2)NC(=O)CNC1=O [compound 323, Ac-hLeu-Y-C-Ile-G-Lys(DOTA)-PipAla-D-V-Y-C-5FW-F-hydroxyVal-COOH] (Ac-[hLeu]YCIGK(DOTA)[Ala(piperidin-4-yl)]DVYC[Trp(5-F)]F[Val(3-OH)]-OH; disulfide 3-11)
The Kd of the first is lower: less than 1 nM for the first, 1 to 10 nM for the second.
